Test results from PMC7701510, “Identification of HN252 as a potent inhibitor of protein phosphatase PPM1B” (Journal of Cellular and Molecular Medicine, 2020).
Entries after “also recorded” stand apart in the source; their conditions may differ.

Biological target: T1, PPM1B (Homo sapiens, UniProt O75688)
T1 construct: inferred from pET-28a vector and Ni-NTA purification; made in house; host or cells: Escherichia coli BL21
T1 sequence (O75688 1-479): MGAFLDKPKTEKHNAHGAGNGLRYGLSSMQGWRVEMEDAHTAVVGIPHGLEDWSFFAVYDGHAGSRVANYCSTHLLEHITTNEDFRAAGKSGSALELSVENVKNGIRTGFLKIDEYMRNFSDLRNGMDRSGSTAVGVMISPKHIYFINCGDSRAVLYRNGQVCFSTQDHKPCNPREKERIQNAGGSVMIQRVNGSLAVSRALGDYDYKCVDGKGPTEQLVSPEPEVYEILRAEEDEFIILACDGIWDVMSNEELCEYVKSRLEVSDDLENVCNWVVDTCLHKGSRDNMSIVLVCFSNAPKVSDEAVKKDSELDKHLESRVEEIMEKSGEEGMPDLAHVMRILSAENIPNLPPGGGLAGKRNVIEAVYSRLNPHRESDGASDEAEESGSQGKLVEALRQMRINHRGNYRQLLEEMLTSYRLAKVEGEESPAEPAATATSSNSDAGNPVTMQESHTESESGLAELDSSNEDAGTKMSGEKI
Experiment: pNPP hydrolysis phosphatase kinetic assay
Type: biochemical
Method: Escherichia coli BL21 strain was transformed with pET‐28a bacterial expression vector harbouring PPM1B and its mutants. ^17 The fusion proteins were induced to be expressed with 0.5 mM isopropyl‐β‐D‐thiogalactoside (IPTG) and purified from bacterial lysate by Ni‐NTA chromatographic matrices (Qiagen) and AKTA FPLC (GE Healthcare Life Sciences) using a Superdex Increase 200 column.
The kinetic assays of PPM1B were carried out at 37°C in 0.1 M acetic acid buffer (50 mM Tris, 40 mM Mn^2+, pH 7.0). The p‐nitrophenyl phosphate (pNPP, Sigma) was used as the substrate which could be conveniently measured at 405 nm. Reactions were started by addition of pNPP to a reaction mixture containing PPM1B (0.4 μM PPM1B, final concentration) and various concentrations of HN252 and stopped by addition of 0.5 M EDTA (pH 10.0) after an appropriate time. The Km value of PPM1B towards pNPP hydrolysis (3.6 mM for pNPP) was used to determine the IC50. The IC50 values, the inhibition constant Ki and inhibition pattern were evaluated as previously described. ^18 The kinetic assays of HN252 towards to other protein phosphatases were carried out as previously described. ^19

Structure (SMILES): Nc1cc(-c2ccc(-c3ccc(O)c(O)c3)cc2)ccc1C(=O)O [HN252]
- inhibition pattern (Lineweaver-Burk plot, pNPP hydrolysis, pH 7.0, 37°C): competitive inhibition; also recorded: classical competitive inhibitor
- Ki (Lineweaver-Burk, pNPP, pH 7.0, 37°C, 0.4 μM PPM1B, 40 mM Mn2+): 0.52 ± 0.06 µM
- IC50 (pNPP substrate, 0.4 μM PPM1B, 40 mM Mn2+, pH 7.0, 37°C, wild type): 0.76 µM
- selectivity: increase in potency against PPM1B than other PSPs (versus PPM1F, PPM1G, PPM1K, PHLPP2, PPM1A a notable exception): about 30 fold
